Source: US8227511B2, “Substituted chromanol derivatives and their use” (Bayer Intellectual Property GmbH, priority 2006, dated 2012)

Experiments:
CETP [1] = molecular target: T1, CETP (Homo sapiens, UniProt P11597); experiment: CETP fluorescence test with enriched CETP; format: biochemical; conditions: enriched CETP fraction from human plasma; transfer of fluorescent cholesterol ester between liposomes; 37° C. for 4 h
T1 construct: CETP is obtained in partially purified form from human plasma by differential centrifugation and column chromatography and used for the test; from tissue; host or cells: human plasma
T1 sequence (P11597 18-493): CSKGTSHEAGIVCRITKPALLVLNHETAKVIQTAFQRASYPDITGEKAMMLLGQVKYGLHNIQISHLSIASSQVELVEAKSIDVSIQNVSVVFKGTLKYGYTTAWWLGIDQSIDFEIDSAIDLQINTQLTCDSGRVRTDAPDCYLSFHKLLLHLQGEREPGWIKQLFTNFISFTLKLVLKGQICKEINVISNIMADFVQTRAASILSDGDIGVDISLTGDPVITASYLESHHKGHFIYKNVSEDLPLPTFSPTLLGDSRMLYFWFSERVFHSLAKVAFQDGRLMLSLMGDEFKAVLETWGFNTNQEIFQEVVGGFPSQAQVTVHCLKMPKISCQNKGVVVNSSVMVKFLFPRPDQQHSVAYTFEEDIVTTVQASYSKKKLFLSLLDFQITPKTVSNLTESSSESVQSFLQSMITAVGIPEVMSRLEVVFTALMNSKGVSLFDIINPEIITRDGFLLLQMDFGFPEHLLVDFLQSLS
Experimental: (§1) CETP is obtained in partially purified form from human plasma by differential centrifugation and column chromatography and used for the test. To this end, human plasma is adjusted to a density of 1.21 g per ml using NaBr and centrifuged at 4° C. at 50 000 rpm for 18 h. The bottom fraction (d>1.21 g/ml) is applied to a Phenyl-Sepharose 26/10 HP fast flow-column (Pharmacia), washed with PBS buffer and then eluted with distilled water. 10 parts of PBS buffer and 1% (w/v) BSA are added to the eluate. The CETP-active fractions are pooled.
Measurement of the CETP-catalyzed transfer of a fluorescent cholesterol ester between liposomes [modified according to the procedure of Bisgaier et al., J. Lipid Res. 34, 1625 (1993)]:
For the production of the donor liposomes, 1 mg of cholesteryl 4,4-difluoro-5,7-dimethyl-4-bora-3a,4a-diaza-s-indacene-3-dodecanoate (cholesteryl BODIPY® FL C12, Molecular Probes) is dissolved in 2 ml of chloroform with 5.35 mg of triolein and 6.67 mg of phosphatidylcholine. The solvent is removed at medium temperature in a SpeedVac and the residue is dried under high vacuum for 1 h. The residue is then dissolved in 600 μl of dioxane with gentle warming in an ultrasonic bath and this solution is added very slowly with ultrasonication to 63 ml of 50 mM Tris/HCl, 150 mM NaCl, 2 mM EDTA buffer pH 7.3 at room temperature. The suspension is then ultrasonicated under an N2 atmosphere for 30 minutes in the Branson ultrasonic bath at about 50 watts, the temperature being kept at about 20° C.
The acceptor liposomes are obtained analogously from 86 mg of cholesteryl oleate, 20 mg of triolein and 100 mg of phosphatidylcholine dissolved in 1.2 ml of dioxane and 114 ml of the above buffer by ultrasonication at 50 watts (20° C.) for 30 minutes.
For testing, a test mix consisting of 1 part of above buffer, 1 part of donor liposomes and 2 parts of acceptor liposomes is used.
50 μl of test mix are treated with 48 μl of enriched CETP fraction (1-3 μg), obtained from human plasma by means of hydrophobic chromatography, and 2 μl of a solution of the substance to be investigated in DMSO and incubated at 37° C. for 4 h.
The change in the fluorescence at 485/535 nm is a measure of the CE transfer; the inhibition of the transfer in comparison to the control batch without substance is determined.

CETP [2] = molecular target: T1, CETP; experiment: CETP-SPA test; format: biochemical; conditions: transfer of 3H-cholesterol ester from human HDL to biotinylated LDL; 37° C. for 18 h
Experimental: as §1
For testing of the CETP activity, the transfer of ^3H-cholesterol ester from human HD lipoproteins to biotinylated LD lipoproteins is measured. The reaction is ended by addition of streptavidin-SPA® beads (Amersham) and the transferred radioactivity is determined directly in a liquid scintillation counter.
In the test batch, 10 μl of HDL-3H-cholesterol ester (about 50 000 cpm) are incubated at 37° C. for 18 h with 10 μl of biotin-LDL (Amersham) in 50 mM Hepes/0.15 M NaCl/0.1% bovine serum albumin (RSA)/0.05% NaN3 pH 7.4 containing 10 μl of CETP (1 mg/ml) and 3 μl of a solution of the substance to be tested (dissolved in 10% DMSO/1% RSA). 200 μl of the SPA-streptavidin bead solution (TRKQ 7005) are then added, incubated further with shaking for 1 h and then measured in a scintillation counter. Corresponding incubations with 10 μl of buffer, 10 μl of CETP at 4° C. and 10 μl of CETP at 37° C. serve as controls.
The activity transferred in the control batches with CETP at 37° C. is rated as 100% transfer. The substance concentration at which this transfer is reduced to half is specified as the IC50 value.

transgenic hCETP mice = experiment: Measurement of the in vivo activity in transgenic hCETP mice; conditions: perorally once a day on 3 days, percentage change compared with the starting value
Experimental: To determine the oral action on lipoproteins and triglycerides, test substance is administered perorally to transgenic mice [Dinchuk et al., BBA, 1295-1301 (1995)] using a stomach tube once a day on 3 days. For this purpose, the substances are dissolved in 10% Solutol HS 15/10% ethanol/80% of a 0.9% strength sodium chloride solution; the administration volume is generally 10 ml per kg of body weight. Before the start of the experiment, blood is withdrawn from the mice retro-orbitally in order to determine cholesterol and triglycerides in the serum. The serum is obtained as described above for hamsters by incubation at room temperature for 30 min and subsequent centrifugation at 6000 g. On the day after the last administration of substance, blood is again withdrawn from the mice in order to determine lipoproteins and triglycerides. The changes in the parameters measured are expressed as the percentage change compared with the starting value.

IC50 (CETP [1]) | IC50 (CETP [2]) | Structure (SMILES) | % increase of HDL after 3 d (dose: 3 × 3 mg/kg) (transgenic hCETP mice)
28 nM | 6 nM | CC(C)c1cc2c(c(-c3ccc(F)cc3)c1Cc1ccc(C(C)(C)C)cc1)[C@@H](O)CC1(CCC1)O2 [Example 36, (4S)-6-(4-tert-Butylbenzyl)-5-(4-fluorophenyl)-7-isopropyl-3,4-dihydrospiro[chromen-2,1′-cyclo-butan]-4-ol] | 40%
26 nM | 21 nM | CC(C)c1cc2c(c(C3CCCC3)c1[C@@H](F)c1ccc(C(F)(F)F)cc1)[C@@H](O)CC1(CCC1)O2 [Example 42, (4S)-5-Cyclopentyl-6-{(S)-fluoro[4-(trifluoromethyl)phenyl]methyl}-7-isopropyl-3,4-dihydrospiro-[chroman-2,1′-cyclobutan]-4-ol] | 81%
